Measurements: US11266686B2, “Metal complexes and methods of treatment” (PROCYPRA THERAPEUTICS LLC, priority 2013, dated 2022)

Key:
[1] = Pharmacokinetics in mice after oral administration, plasma and brain by LC/MS/MS; conditions: 30 mg/kg CuXTSM API oral; for Brain AUC0-24h / Brain AUC0-inf / Brain Cmax / Brain Tmax / Brain t½ (number of time points): mouse brain; for Brain t½ (number of time points) / Plasma t½ (number of time points): bracket = number of time points; for Plasma Ke / Plasma MRT / Plasma AUC0-24h / Plasma AUC0-inf / Plasma Cmax / Plasma Tmax / Plasma t½ (number of time points): mouse plasma; for Plasma AUC0-24h / Plasma AUC0-inf / Plasma Cmax / Plasma Tmax: CuATSM in SSV, NCDs in water; for Brain:plasma-ratio (AUC-based) / Brain:plasma-ratio (Cmax-based): mouse
Procedure: CuATSM was suspended in “Standard Suspension Vehicle” (SSV), consisting of 0.9% (w/v) NaCl, 0.5% (w/v) sodium carboxymethylcellulose, 0.5% (v/v) benzyl alcohol, and 0.4% (v/v) Tween 80 in deionized water. All other test compounds were suspended in sterile water. Samples were prepared by adding one of the compounds to the liquid vehicle (water or SSV) in a vial and then vortexing the mixture for 3 min with a stir bar inside. If the powdered sample was not completely wetted or not completely suspended, the sample was vortexed for another minute. If wetting was still incomplete, the vial was sonicated until a fully wetted suspension was obtained. Between doses, the sample was stirred on medium speed and then vortexed for an additional 20 s immediately before the next dose was removed from the vial. All dosing was completed from a single preparation of the suspension within 60 min of adding the compound to water or SSV.
Mice were deprived of pelleted food overnight, during which time 10% dextrose, as Dextroput, was provided in tap water, after which the test items were administrated orally by gavage in water or SSV. […] The blood samples were kept on ice after sampling and centrifuged at +4° C., 1800×g for 5 min to prepare plasma. Plasma samples were extracted and transferred into pre-labelled Eppendorf test tubes (50 μl exact in one vial, and the remaining in a second vial) and frozen at −20° C. The samples were transported on dry ice to the analysis site. Following blood sampling, mice were euthanized by cervical dislocation, and then brains were collected through opened skulls. The brains were weighed and placed in test tubes and placed on water ice. Phosphate-buffered saline (PBS, pH 7.4), 4 ml per 1 g of brain tissue, was added to the test tube and brains were homogenized by using Ultra-Turrax T25 homogenizer/S25N-10G (Setting 2, 9500 rpm, approximately 10 s). The homogenate was frozen at −20° C. immediately after homogenization. The samples were transported on dry ice to the analysis site.
Dosed mice were studied in triplicate for each of the seven time points, totaling 21 mice dosed for each studied compound. Plasma samples and brain homogenates from four untreated animals were also obtained. The plasma samples were thawed at room temperature (RT), mixed with 2-fold volume of acetonitrile, shaken and centrifuged for 10 min at 13 000×g (Heraeus Pico 17 centrifuge), after which supernatants were transferred into glass vials. The brain homogenate samples were mixed with 2-fold volume of acetonitrile:methanol, shaken, ultrasonicated for 20 min, and centrifuged for 10 min at 13 000×g (Heraeus Pico 17 centrifuge), after which supernatants were transferred into glass vials. […] Quality control (QC) samples were prepared for concentrations 10, 100 and 1000 ng/ml in plasma or brain homogenates.
Elution was with gradient of 0.5% formic acid/acetonitrile (99:1) increased step-wise to (5:95).
The pharmacokinetic parameters for study compounds in plasma and brain were calculated using standard non-compartmental methods. The elimination phase half-life (t½) was calculated by least-squares regression analysis of the terminal linear part of the log concentration-time curve. […] The maximum concentration (Cmax) and the time to Cmax (Tmax) were derived directly from the concentration data. Mean Residence Time, MRT, and elimination rate constant, Ke, were also calculated from the concentration vs. time data of plasma samples.

[2] = Kinetic solubility determination (μDISS Profiler, in situ fiber optic UV); conditions: for dissolved CuATSM as share of the total available in the assay: gluconic acid NCD at the 0.3 hour time point
Procedure: Solubility assays were performed in 25 mL glass vials. Glass vials (4-mL, capped, VWR) were used to prepare stock solutions. All experiments were conducted using μDISS Profiler™ operated by μDISS Command Software (version 5.0.1.0). MB-8 mini-water bath with built-in stirring device was used to provide stirring during solubility measurements. Temperature during experiments was maintained at 25±2° C., and were performed in duplicate.
An HCl/KCl based buffer at pH 1.2 and a simulated intestinal fluid at pH 6.8 (no pancreatin) were prepared according USP protocols (Vol 35/NF30). […] The concentration measurements are performed directly in the dissolution media, with processed results plotted in real time using the μDISS Profiler™ (Pion) instrument. The Profiler uses an in situ fiber optic-dip probe UV apparatus, with the probe center-positioned in the vial holding the studied compounds and 10-20 mL of media. Interference due to background turbidity was minimized when needed by a spectral second derivative method (Avdeef, A; Tsinman, O. “Miniaturized Rotating Disk Intrinsic Dissolution Rate Measurement: Effects of Buffer Capacity in Comparisons to Traditional Wood's Apparatus”, Pharm. Res., 2008, DOI: 10.1007/s11095-008-96-79-z).
The 2 and 20 mm path length tips were selected for detecting the concentration of CuATSM at pH 1.2 and pH 6.8 respectively. A dry CuATSM powder was dissolved in DMSO resulting a stock solution at known concentration, and then the solution was used to generate standard curves by serial addition. Standard curves were determined from the area under the second derivative curve in wavelength range 340-366 nm (for pH 1.2) and 445-465 nm (for pH 6.8) so as to avoid over saturation of the UV signal.
The solubility of CuATSM was determined in pH 6.8 buffer. Samples of CuATSM were introduced into pH 6.8 buffer as powders, thus, unlike for standards, the final solutions contained no solvents in the background. The 20 mm (at pH 6.8) path length tip was selected for detecting the concentration of CuATSM in solution. All experiments were performed at room temperature 25±3° C.
The 20 mm pathlength tip was selected for detecting the concentration of the compounds in pH 6.8 buffer solution. All experiments were performed at room temperature, 25±3° C., and were performed in duplicate.
Kinetic solubility determination of CuATSM:saccharin (1:2). CuATSM:saccharin (1:2) was prepared according to the methods of EXAMPLE 3. The kinetic solubility profile of CuATSM:saccharin (1:2) was determined in pH 6.8 buffer similarly to the methods given in EXAMPLE 13 and EXAMPLE 14. Standard curves of CuATSM:saccharin (1:2) and saccharin were generated and compared to the standard curves of CuATSM. Saccharin concentrations in the buffer solution were determined from the saccharin standard curves in the 292-310 nm wavelength region, using the Zero Intercept Method so as to minimize spectral interference from CuATSM. […] The upper concentration limit of the assay was approximately 0.12 mg/mL of CuATSM:saccharin (1:2), resulting in upper concentrations limits for CuATSM and for saccharin in solution approximately 60 μg/mL each. All experiments were performed at about 25±3° C., and were performed in duplicate.

[3] = pH 6.8 buffer, powder added, 25±3° C., 12-hour monitoring

SMILES | Brain AUC0-24h [1] | Brain AUC0-inf [1] | Brain Cmax [1] | Brain Tmax [1] | Brain t½ (number of time points) [1] | Plasma Ke [1] | Plasma MRT [1] | Plasma AUC0-24h [1] | Plasma AUC0-inf [1] | Plasma Cmax [1] | Plasma Tmax [1] | Plasma t½ (number of time points) [1] | Brain:plasma-ratio (AUC-based) [1] | Brain:plasma-ratio (Cmax-based) [1] | time to maximum concentration of CuATSM ([2]; pH 6.8 buffer, 25±3° C.) | maximum concentration of CuATSM in solution [2, 3] | dissolved CuATSM as share of the total available in the assay ([2]; pH 6.8 buffer) | also measured
CNC1=NN=C(C)C(C)=NN=C(NC)[S][Cu][S]1 [CuATSM, Copper(II) diacetyl-di(N4-methyl)thiosemicarbazone, reference compound] | 10944 ng·min/g | 13843 ng·min/g | 28.4 ng/g | 60 min | 199 (3) min | 0.0035 min⁻¹ | 315 min | 9637 ng·min/mL | 9698 ng·min/mL | 22.2 ng/mL | 120 min | 196 (4) min | 1.1 | 1.3 |  |  |  | concentration of CuATSM at the end of the 12-hour monitoring period ([2]; pH 6.8): remained at that concentration; time to maximum concentration of CuATSM ([2]; pH 6.8): approximately 8 hours
CNC1=NN=C(C)C(C)=NN=C(NC)[S][Cu][S]1.O=C(O)C(O)C(O)C(O)C(O)CO.O=C(O)C(O)C(O)C(O)C(O)CO [CuATSM:gluconic acid (1:2)] | 71554 ng·min/g | 73544 ng·min/g | 133 ng/g | 240 min | 261 (3) min | 0.0028 min⁻¹ | 357 min | 25 163 min*ng/mL | 25696 ng·min/mL | 36.5 ng/mL | 240 min | 252 (3) min | 2.8 | 3.6 | ≤ 0.11 h | approximately 3 μg/mL | less than 1% | solubility in DMSO (did not fully dissolve at) ([2]; DMSO stock solution): < 0.4 mg/mL; time to maximum concentration of CuATSM ([2]; pH 1.2 KCl/HCl buffer): ≤ 0.3 h; maximum concentration of CuATSM in solution ([2]; pH 1.2 KCl/HCl buffer, 3-hour monitoring): approximately 195 μg/mL; dissolved CuATSM as share of the total amount of CuATSM in the sample ([2]; pH 1.2 buffer, within 0.3 hours, kept for 3 hours): 33%; change in the chemical identity of CuATSM after dissolution (UV spectral shifts) ([2]; pH 6.8 buffer, 450 nm shifted to 415 nm within the first 0.3 hours): reaction or decomposition
CNC1=NN=C(C)C(C)=NN=C(NC)[S][Cu][S]1.O=C1NS(=O)(=O)c2ccccc21.O=C1NS(=O)(=O)c2ccccc21 [CuATSM:saccharin (1:2)] | 30643 ng·min/g | 30979 ng·min/g | 71.8 ng/g | 15 min | 202 (2) min | 0.0040 min⁻¹ | 375 min | 20 333 min*ng/mL | 20436 ng·min/mL | 29.0 ng/mL | 120 min | 170 (2) min | 1.5 | 2.5 | ≤ 0.8 h | approximately 2 μg/mL | less than 1% | time to maximum concentration of saccharin ([2]; pH 6.8 buffer): ≤ 0.3 h; concentration of CuATSM at the end of the 12-hour monitoring period ([2]; pH 6.8 buffer, 25±3° C.): approximately 1 μg/mL; maximum concentration of saccharin in solution ([2]; pH 6.8 buffer, unchanged over the 12-hour monitoring period): approximately 60 μg/mL
